Laboratory results taken from BindingDB's records for doi:10.1021/jm030418i (Abbott Laboratories, 2004).
pKi: −log10 of the molar value.

Target: Gonadotropin-releasing hormone receptor (Rattus norvegicus) (UniProt P30969)
Test: In vitro binding affinity was determined against rat Luteinizing hormone-releasing hormone (LHRH) receptor cloned in CHO cells

Sequence of Gonadotropin-releasing hormone receptor (Rattus norvegicus) (P30969 whole entry, looked up): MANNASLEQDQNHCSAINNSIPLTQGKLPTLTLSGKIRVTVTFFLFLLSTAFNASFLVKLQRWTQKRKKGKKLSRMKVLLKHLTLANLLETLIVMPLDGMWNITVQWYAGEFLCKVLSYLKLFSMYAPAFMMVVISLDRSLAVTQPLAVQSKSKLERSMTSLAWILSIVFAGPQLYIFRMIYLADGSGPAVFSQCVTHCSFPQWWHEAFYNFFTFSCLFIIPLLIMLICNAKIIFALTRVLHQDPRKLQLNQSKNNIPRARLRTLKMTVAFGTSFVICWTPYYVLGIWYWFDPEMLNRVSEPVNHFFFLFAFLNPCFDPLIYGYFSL

- pKi: 7.29
SMILES: CC[C@H]1OC(=O)[C@H](C)[C@@H](OC(=O)N2CCOC2)[C@H](C)[C@@H](OC2O[C@H](C)C[C@H](N(C)C(C)C)[C@H]2O)[C@@](C)(OC)C[C@@H](C)C(=O)[C@H](C)[C@H]2N(CCc3ccc(Cl)cc3)C(=O)O[C@]12C (stereo partly specified)
